In PMC8780580, “The Neuroactive Steroid Pregnanolone Glutamate: Anticonvulsant Effect, Metabolites and Its Effect on Neurosteroid Levels in Developing Rat Brains” (Pharmaceuticals, 2021):
Where a name gives a salt, the structure may show the parent alone.

Key:
[1] = system: pentylenetetrazol-induced seizures; assay: Pentylenetetrazol (PTZ)-induced seizures in 12- and 25-day-old rats; type: in vivo, male Wistar albino rats
Method: Solutions of PA-G and PA-S were administered intraperitoneally at a concentration of 1 mg/mL, and doses of 1, 5, 10, and 20 mg/kg were used. The solutions of zuranolone were administered intraperitoneally at a concentration of 1 mg/mL, and doses of 0.5, 1, 5, and 10 mg/kg were used. Controls were injected with CDX solution in a volume corresponding to the highest dose (i.e., 20 mL/kg). The same control group was used for PA-S and PA-G. Pentylenetetrazol (PTZ, Sigma Aldrich, Gillingham, Dorset, UK) was dissolved in water in a concentration of 50 mg/mL and was administered subcutaneously at a dose of 100 mg/kg 20 min after the administration of PA-G or PA-S. Each age and dose group comprised 8 animals. The rats were placed individually into plexiglass boxes and were then observed for 30 min after PTZ injection. The incidence, severity, and latencies of seizures were assessed. Younger animals were placed on a pad heated to 34 °C, i.e., to the temperature in the nest for the whole duration of the experiment because of immature thermoregulation. Generalized tonic-clonic or clonic seizures with a loss of righting reflexes were present after a dose of 100 mg/kg of PTZ in all control animals in both age groups. […] The severity of seizures was quantified using a five-point scale as follows: 0—no changes; 0.5—abnormal behaviour (e.g., automatisms, increased orienting reaction); 1—isolated myoclonic jerks; 2—atypical or prolonged minimal seizures; 3—clonic seizures (mS) involving head and forelimb muscles with preserved righting reflexes (older-term minimal pentetrazol seizures); 4—generalized seizures without the tonic phase (GCS); 5—complete generalized tonic-clonic seizures (GTCS).

GABAARs = conditions: allosteric displacement of [35S]-TBPS from the picrotoxin binding site on GABAARs; cited from earlier work
postpartum depression = system: postpartum depression; design: method as in PMID 34190962; conditions: women with postpartum depression, Phase 3 clinical trial; cited from earlier work
[2] = within 0.5 min of uptake; cited from earlier work
[3] = Steroidomic (GC-MS/MS) analysis of hippocampal tissue after PA-G administration; conditions: for concentration at 20 min: male, Wistar, rat, in vivo, ip, Steroid concentration in hippocampal tissue, PA-G-Treated (P); for concentration at 20 min / increase in concentration compared with basal levels: 1 mg/kg; for concentration at 20 min / fold increase in the concentration in the rat hippocampus above the basal levels / percentage of total significantly increased (5β) steroids in the rat hippocampus: 20 min after PA-G i.p., 1 mg/kg in CDX; for increase in concentration compared with basal levels: after PA-G i.p.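 As to all read-outs here: hippocampal steroids quantified by GC-MS/MS, covering free and conjugated forms after hydrolysis, compared against intact rats and rats injected with CDX vehicle alone, five animals per group.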
Method: In a separate experiment, samples of the hippocampus were obtained from male albino Wistar rats in 6 experimental groups consisting of P12 and P25 animals that were either intact (I), controls (C, i.p. application of a solution of CDX), or in the experimental group (i.p. application of PA-G in a solution of CDX at a dose of 1 mg/kg). Each group consisted of 5 animals. The animals were sacrificed using ether anaesthesia (Penta, Czech Republic) 30 min after administration of the drug. The hippocampi were quickly removed, weighed, and frozen at −80 °C in sterile plastic microvials until analysis.
An amount of 17–100 mg of the hippocampal tissue was minced and then administered into screw-cap tubes. Next, 2 mL of methanol with a mixture of internal standards was added, and the samples were incubated for 1 week in a refrigerator at 4 °C with agitation for 2 min once a day. Afterwards, the extract was transferred into new screw-cap tubes and dried in a vacuum centrifuge at 45 °C. After that, 1 mL of water of chromatographic purity was added, and the samples were further treated as described in our recently published paper [76].
Briefly, the unconjugated steroids were extracted from a testing sample with diethyl-ether, the extract was dried, and the lipids were separated by partitioning between a mixture of methanol with water (4:1, v/v) and pentane. The pentane phase was discarded, and the polar phase was dried and used for further analysis of the unconjugated steroids. Steroid conjugates remaining in the polar residue after diethyl ether were hydrolyzed to their parent hydroxy steroids (unconjugated molecules) and analyzed.

α4β3γ2 GABAARs = system: α4β3γ2 GABAARs; design: method as in PMID 15294445; conditions: at 100 μM; cited from earlier work
α4β3δ GABAARs = system: α4β3δ GABAARs; design: method as in PMID 15294445; conditions: cited from earlier work
[4] = P12 rats, i.p. doses of 5 and 10 mg/kg

Structure (SMILES): C[C@@]1(O)CC[C@H]2[C@H](CC[C@@H]3[C@@H]2CC[C@]2(C)[C@@H](C(=O)Cn4cc(C#N)cn4)CC[C@@H]32)C1 [zuranolone]
- development of GS [1, 4]: abolished
- seizure severity [1, 4]: significant decrease in seizure severity
- latencies of mS ([1]; P25 rats): increase in the latencies of mS
- development of GS ([1]; P25 rats, all tested doses (0.5, 1, 5, 10 mg/kg i.p.)): completely suppressed development of GS
- seizure severity ([1]; P25 rats, i.p. dose of only 1 mg/kg): significantly decreased seizure severity
- development of mS ([1]; P25 rats, i.p. doses of 5 and 10 mg/kg): suppressed the development of mS
- IC50 (GABAARs): 7 nM
- symptoms of depression (postpartum depression): improved the symptoms of depression

Structure (SMILES): C[C@]12CC[C@H](OS(=O)(=O)O)CC1=CC[C@@H]1[C@@H]2CC[C@]2(C)C(=O)CC[C@@H]12 [Dehydroepiandrosterone sulfate (DHEA-S), 17-oxo-androst-5-en-3β-yl 3-sulfate]
- desulfation [2]: > 50%
- concentration at 20 min ([3]; 12-day-old rats): 4.86 ng/g
- concentration at 20 min ([3]; 25-day-old rats): 1.52 ng/g

Structure (SMILES): CC(=O)[C@@]1(O)CCC2C3CC[C@@H]4C[C@H](O)CC[C@]4(C)C3CC[C@@]21C (stereo partly drawn) [17-OH-PA, 17-hydroxy-pregnanolone]
- greatest response (α4β3γ2 GABAARs): 20%
- proportion of the brain's 5β-steroids in the tissue ([3]; 20 min after PA-G administration): about three-quarters
- fold increase in the concentration in the rat hippocampus above the basal levels ([3]; P12): 562 x
- percentage of total significantly increased (5β) steroids in the rat hippocampus ([3]; P12): 73.7%
- increase in concentration compared with basal levels ([3]; P12 animals): up to 560 fold
- metabolite of PA-G identified in hippocampus ([3]; P12 vs. P25 animals, 20 min after PA-G administration): major metabolite
- fold increase in the concentration in the rat hippocampus above the basal levels ([3]; P25): 35.8 x
- percentage of total significantly increased (5β) steroids in the rat hippocampus ([3]; P25): 75.9%
- increase in concentration compared with basal levels ([3]; P25 animals): 36 fold
- concentration at 20 min ([3]; 12-day-old rats): 518 ng/g
- concentration at 20 min ([3]; 25-day-old rats): 40.8 ng/g
- maximum efficacy (α4β3δ GABAARs): 57%
- EC50 (α4β3δ GABAARs; read-out: EC50 (potentiation of responses)): 3.5 µM
